How the values were obtained:
LTD4 [1] = experiment: LTD4 antagonism in isolated guinea-pig trachea with indomethacin, Test method (ii) (Table 4); type: cell-based; details: Cavia porcellus, 0.5 h, LTD4 2×10^-8 g/ml, test compound 10^-6 g/ml, 30 min prior, 5 μmol indomethacin
Protocol: (ii) LTD4 antagonism in guinea-pig trachea
Antagonism for LTD4 was determined in isolated guinea-pig trachea prepared as spiral strip. Tracheal preparations were suspended under 1 g tension in 10 ml organ baths containing 5 μmol of indomethacin and they were incuated for 1 hr prior to use. Contractile responses to LTD4 (2×10^-8 g/ml) were obtained after the maximal response to histamine (10^-4 M). Test compounds dissolved in 100% dimethyl sulfoxide were added to the organ baths (final concentration of 10^-6 g/ml) 30 min prior to LTD4 addition, and then contractile responses to LTD4 were compared with those of control which was obtained from a paired trachea in the absence of test compounds. LTD4 -induced contractions were expressed as a percentage of the maximal response to histamine. The antagonism was determined as follows:
(§1) Antagonism (%)=(1.0-% contraction in test/% contraction in […]

ddY strain male mice = experiment: Acute toxicity test, Test method-(2), intraperitoneal; type: in vivo; details: 7 days
Protocol: The lethal ratio was determined in ddY strain male mice (4 weeks old) at 7 days after the intraperitoneal injection of test compounds.

[2] = tested on: anaphylactic bronchoconstriction in passively sensitized guinea-pig; experiment: Effect on anaphylactic bronchoconstriction in passively sensitized guinea-pig; type: in vivo; details: 2 mg/kg i.v.
Protocol: (iii) Effect on anaphylactic bronchoconstriction in passively sensitized guinea-pig
Male guinea-pigs (350-450 g) were passively sensitized with intravenous (i.v.) injection of 0.125 ml rabbit anti-EA (egg albumin) serum (Cappel Laboratories) 1 day preceding the experiment. […] Sensitized guinea-pigs were anaesthetized with intraperitoneal injection of urethane (1.5 g/kg). The right jugular vein was cannulated for the administration of the all agents and trachea was cannulated to record total pulmonary resistance. Guinea-pigs were artificially ventilated by a small animal respirator (Shinano, Model SN-480-7) set at a stroke volume of 5 ml and a rate of 50 breaths per min. […] The increase in air overflow volume was expressed as a percentage of the maximum bronchoconstriction obtained by clamping off the trachea. Following surgical preparation, the animals were pretreated with indomethacin (1.0 mg/kg, 10 min), pyrilamine (2 mg/kg, 6 min) and propranolol (0.1 mg/kg, 5 min) prior to the EA challenge (0.1 or 10 mg/kg). All test compounds, 2 mg/kg in 3% Tween 80 or 3% PEG-400, were administered 1 min before the EA challenge. Inhibition (%) of bronchoconstriction was determined as follows: Inhibition (%)=(1.0%-maximum bronchoconstriction in test/% maximum bronchoconstriction in control)×100. The maximum bronchoconstriction was obtained within 20 min after the EA challenge.
In the Table, the dose of EA was 10 mg/kg, and each compound was dissolved or suspended in 3% Tween 80.
The dose of EA was 0.1 mg/kg.

LTC4 = experiment: Antagonism in isolated guinea-pig trachea, Test method (i) (Table 3, given as LTC4 antagonism); type: cell-based; details: test compound 10^-5 g/ml, given as LTC4 antagonisms, 5 min; for inhibition at 10 µg/mL: Cavia porcellus
Protocol: (§2) (i) LTC4 and LTD4 antagonisms in guinea-pig trachea
(§3) Antagonisms for LTC4 and LTD4 were determined in isolated guinea-pig trachea prepared as spiral strip. Tracheal preparations were suspended under 1 g tension in 10 ml organ baths and they were incubated for 1 hr prior to use. Contractile responses to LTC4 (2×10^-8 g/ml) and LTD4 (2×10^-8 g/ml) were obtained after the maximal response to histamine (10^-4 M). Test compounds dissolved in 100% dimethyl sulfoxide were added to the organ baths (final concentration of 10^-5 g/ml or 10^-6 g/ml) 5 min prior to LTC4 and LTD4 addition, and then contractile responses to LTC4 and LTD4 were compared with those of control which was obtained from a paired trachea in the absence of test compounds. LTC4 - and LTD4 -induced contractions were expressed as a percentage of the maximal response to histamine. The antagonism was determined as follows:
as §1

LTD4 [3] = experiment: LTD4 antagonism in isolated guinea-pig trachea, Test method (i) (Table 4, values with asterisk); type: cell-based; details: Cavia porcellus, 5 min, test compound 10^-6 g/ml, 5 min prior
Protocol: as §2, §3, §1

[4] = Table 5-(2), EA 0.1 mg/kg, Tween 80
[5] = Table 5-(1), EA 10 mg/kg, 3% Tween 80

SMILES | Lethal ratio (Death number/Experimental number) (ddY strain male mice; 200 mg/kg intraperitoneal) | Inhibition (%) [2, 4] [%] | inhibition at 10 µg/mL (LTC4) [%] | Inhibition (%) [2, 5] [%] | further results
CCCc1cc(C(=O)O)ccc1OCCCNc1cnn(C(C)C)c(=O)c1Cl [Compound No. 41, 4-chloro-5-[3-(2-n-propyl-4-carboxyphenoxy)propylamino]-2-i-propyl-3(2H)pyridazinone] | 0/2 | 31 | – | – | inhibition at 1 µg/mL (LTD4 [1]): 82%; Antagonism (%) (LTC4): 100%
CCCc1cc(C(N)=O)ccc1OCCCNc1cnn(C(C)C)c(=O)c1Cl [Compound No. 42, 4-Chloro-5-[3-(2-n-propyl-4-carbamoylphenoxy)propylamino]-2-i-propyl-3(2H)pyridazinone] | 0/2 | – | 95 | – | inhibition at 1 µg/mL (LTD4 [1]): 76%; Lethal ratio (Death number/Experimental number) (ddY strain male mice; 400 mg/kg intraperitoneal): 0/1; Inhibition (%) ([2]; Table 5-(2), EA 0.1 mg/kg, PEG-400): 31%
CCCc1cc(C(=O)OC)ccc1OCCCNc1cnn(C(C)C)c(=O)c1Cl [Compound No. 44, 4-choloro-5-[3-(2-n-propyl-4-methoxycarbonylphenoxy)propylamino]-2-i-propyl-3(2H)pyridazinone] | 0/1 | – | 90 | – | inhibition at 1 µg/mL (LTD4 [1]): 63%; Lethal ratio (Death number/Experimental number) (ddY strain male mice; 400 mg/kg intraperitoneal): 0/1
CCCc1cc(C(=O)OCC)ccc1OCCCNc1cnn(C(C)C)c(=O)c1Cl [Compound No. 64, 4-chloro-5-[3-(2-n-propyl-4-ethoxycarbonylphenoxy)propylamino]-2-i-propyl-3(2H)pyridazinone] | – | 56 | 87 | – | –
CCCc1cc(C(=O)O)ccc1OCCCNc1cnn(C(C)C)c(=O)c1Cl [Compound No. 67] | – | 62 | 99 | – | –
CCc1cc(C#N)ccc1OCCCNc1cnn(C(C)C)c(=O)c1Cl [Compound No. 98] | – | – | 89 | – | inhibition at 1 µg/mL (LTD4 [1]): 80%
CCCCc1cc(C(=O)O)ccc1OCCCNc1cnn(C(C)C)c(=O)c1Cl [Compound No. 112, 4-chloro-5-[3-(2-n-butyl-4-carboxyphenoxy)propylamino]-2-i-propyl-3(2H) pyridazinone] | – | – | 100 | – | inhibition at 1 µg/mL (LTD4 [3]): 62%
CCCCc1cc(C(N)=O)ccc1OCCCNc1cnn(C(C)C)c(=O)c1Cl [Compound No. 114, 4-Chloro-5-[3-(2-n-butyl-4-carbamoylphenoxy)propylamino]-2-i-propyl-3-(2H)pyridazinone] | – | – | 89 | – | inhibition at 1 µg/mL (LTD4 [3]): 66%
CCCCc1cc(C(=O)O)ccc1OCCCNc1cnn(C(C)C)c(=O)c1Br [Compound No. 127] | – | – | – | – | inhibition at 1 µg/mL (LTD4 [3]): 91%
CCCc1cc(C(=O)OC)ccc1OCC(=O)CNc1cnn(C(C)C)c(=O)c1Cl [Compound No. 161, 4-Chloro-5-[3-(2-n-propyl-4-methoxycarbonylphenoxy)-2-oxopropylamino]-2-i-propyl-3(2H)pyridazinone] | – | 20 | 71 | – | –
COc1cccc(OCCCOc2cnn(C(C)(C)C)c(=O)c2Cl)c1 [compound 27] | 0/2 | – | 65 | 23 | Lethal ratio (Death number/Experimental number) (ddY strain male mice; 100 mg/kg intraperitoneal): 0/2
CCn1ncc(OCCCOc2cccc(OC)c2)c(Cl)c1=O [compound 28] | 0/2 | – | 61 | 17 | Lethal ratio (Death number/Experimental number) (ddY strain male mice; 400 mg/kg intraperitoneal): 0/1
CCCc1cc(C(=O)OC)ccc1OCCCNc1cnn(C)c(=O)c1Cl [compound 43] | – | – | 63 | 24 | –
CCCc1cc(C#N)ccc1OCCCNc1cnn(CC)c(=O)c1Cl [compound 47] | 0/2 | – | 99 | 28 | Lethal ratio (Death number/Experimental number) (ddY strain male mice; 400 mg/kg intraperitoneal): 0/2
CCOc1ccccc1OCCCNc1cnn(CC)c(=O)c1Cl [compound 51] | – | – | 82 | 15 | –
COc1ccc(CCNc2cnn(C(C)C)c(=O)c2Cl)cc1 [compound 55] | – | – | 72 | 26 | –
CCCc1cc(C#N)ccc1OCCCNc1cnn(C(C)C)c(=O)c1Cl [compound 60] | – | – | 98 | 15 | –
CCCc1cc(C#N)ccc1OCCCOc1cnn(CC)c(=O)c1Cl [compound 65] | – | 27 | 98 | – | –
CCOc1ccccc1OCCCNc1cnn(C(C)C)c(=O)c1Cl [compound 71] | – | 26 | 88 | – | –
CCCc1cc(C(=O)O)ccc1OCCCN(C)c1cnn(C(C)C)c(=O)c1Cl [compound 74] | – | 50 | 73 | – | –
